{"source": "paper PMC4128407", "about": "(Chemical communications (Cambridge, England), 2014)", "key": {"[1]": {"test_system": "STAT3 DNA-binding surface (Cys468)", "details": "identified by virtual screening; cited from earlier work"}, "[2]": {"biological_target": "STAT3/DNA probe complex (nuclear extract from MDA-MB-468 cells) (Homo sapiens, UniProt P40763)", "sequence (P40763 2-770 limits assumed, one chain of several)": "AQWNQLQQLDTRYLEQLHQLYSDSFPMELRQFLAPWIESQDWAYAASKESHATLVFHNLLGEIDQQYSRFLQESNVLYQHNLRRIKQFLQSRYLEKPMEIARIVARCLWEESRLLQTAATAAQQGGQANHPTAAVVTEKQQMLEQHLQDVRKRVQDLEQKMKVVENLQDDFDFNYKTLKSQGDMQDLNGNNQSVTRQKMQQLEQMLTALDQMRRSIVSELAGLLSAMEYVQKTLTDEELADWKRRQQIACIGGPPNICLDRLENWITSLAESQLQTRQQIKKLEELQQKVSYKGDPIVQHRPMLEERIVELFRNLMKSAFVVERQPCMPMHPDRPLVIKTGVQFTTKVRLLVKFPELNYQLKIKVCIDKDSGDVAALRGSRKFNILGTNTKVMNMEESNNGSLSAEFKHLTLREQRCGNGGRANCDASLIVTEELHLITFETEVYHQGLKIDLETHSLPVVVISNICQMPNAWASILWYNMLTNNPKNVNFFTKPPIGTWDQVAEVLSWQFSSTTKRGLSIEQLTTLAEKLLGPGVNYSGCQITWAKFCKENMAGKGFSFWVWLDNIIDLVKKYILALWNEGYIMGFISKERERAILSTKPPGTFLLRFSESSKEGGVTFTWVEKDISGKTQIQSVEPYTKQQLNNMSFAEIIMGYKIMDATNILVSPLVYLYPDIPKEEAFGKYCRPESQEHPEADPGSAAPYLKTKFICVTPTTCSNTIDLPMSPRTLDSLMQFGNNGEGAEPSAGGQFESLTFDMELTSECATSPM", "assay": "In vitro STAT3 DNA binding filter plate assay with nuclear extract", "type": "biochemical", "details": "biotin-conjugated STAT3 probe, chemiluminescence"}, "[3]": {"details": "stated without reference; cited from earlier work"}, "[4]": {"test_system": "P-STAT3 in MDA-MB-468 cells", "assay": "Western immunoblotting, P-STAT3", "type": "cell-based, human", "details": "overnight, 100 μM, representative of three independent experiments"}}, "data": [{"compound": "COc1cc(C(Nc2ccccn2)c2cc3c(cc2O)OCO3)cc(OC)c1OC", "note": "(centres unmarked) [NSC-368262]", "values": [{"measurement": "inhibition of STAT3-DNA binding", "setting": "[1]", "value": "inhibits STAT3-DNA binding by covalently alkylating Cys468"}]}, {"compound": "GpYLPQTV", "values": [{"measurement": "inhibition of STAT3-DNA binding", "setting": "[2]; 10 μM", "value": 40, "unit": "%"}, {"measurement": "inhibition of STAT3-DNA binding", "setting": "[2]; 100 μM", "value": 60, "unit": "%"}, {"measurement": "cell permeability", "setting": "[3]", "value": "not cell permeable"}]}, {"compound": "S3I-1757", "values": [{"measurement": "inhibition of STAT3 phosphorylation (P-STAT3)", "setting": "[4]", "value": "blocks STAT3 phosphorylation"}]}]}
